# Data reported in paper PMC9945734 (BMC Medicine, 2023).
# Columns and labels:
# [1] = tested on: DU 145 (KLF5 null) cells expressing KLF5^K369R; experiment: CCK-8 cell viability assay; assay type: cell-based; settings: Homo sapiens, CCK-8, 48 h
# Experimental: (§1) According to the manufacturer's instructions, cell viability was measured using a kit from Beyotime Biotechnology. Briefly, cells were seeded onto 96-well plates at 5 × 10^3 cells per well, incubated overnight, and then treated for 48 h with drugs at 0, 0.02, 0.05, 0.14, 0.41, 1.23, 3.7, 11.1, 33.3, and 100 μM. Four drugs were analyzed: furagin, nifuratel, nitazoxanide, and retapamulin. At the end of drug treatment, the medium was removed, the CCK-8 solution was added into each well at 100 μL/well and incubated for 1.5 h at 37°C, and the optical density (OD) was measured at 450 nm using a microplate reader (BioTek).
# [2] = tested on: DU 145 (KLF5 null) cells expressing KLF5; experiment: CCK-8 cell viability assay; assay type: cell-based; settings: Homo sapiens, CCK-8, 48 h
# Experimental: as §1
# [3] = tested on: PC-3 (KLF5 null) cells expressing KLF5^K369R; experiment: CCK-8 cell viability assay; assay type: cell-based; settings: Homo sapiens, CCK-8, 48 h
# Experimental: as §1
# [4] = tested on: PC-3 (KLF5 null) cells expressing KLF5; experiment: CCK-8 cell viability assay; assay type: cell-based; settings: Homo sapiens, CCK-8, 48 h
# Experimental: as §1
# [5] = tested on: PC-3-KR-Luc cells; experiment: Bone metastasis assay, prevention mode; assay type: in vivo, Balb/c nude mice; settings: 100 mg/kg intragastric every day
# Source text: (§2) Male Balb/c nude mice at 3-4 weeks old were purchased from Charles River (Beijing, China). Upon arrival at the Animal Center of the Southern University of Science and Technology (SUSTech), mice were quarantined for one week before use. All mice were maintained and handled following the National Institutes of Health guide for the Care and Use of Laboratory Animals. To measure if NTZ inhibits Ac-KLF5-induced bone metastasis, we used both prevention and therapy modes. […] Then the mice were randomly divided into vehicle and NTZ groups (six mice in each group) and received treatment at day 0. The tumor growth and body weight were determined every week. After 5 weeks of treatment, all mice were sacrificed and bone tissues and major organs were resected for hematoxylin and eosin (H&E) staining. The selection of 5 weeks for investigation is based on the pilot experiment, in which clear bone metastases formed at 5 weeks after injection but no tumors were detected in other organs, including the brain, liver, lung, spleen, heart, prostate, seminal vesicle, small intestine, and testes (data not shown). Tumor growth in the bone was determined once a week by in vivo BL imaging using the Living Image Software 4.4 (IVIS Spectrum, PerkinElmer Health Sciences, Massachusetts, USA). Ten minutes after intraperitoneal injection of D-luciferin sodium salt (15 mg/mL, 10 μL/g BW) (GM-040611, Genomeditech, Shanghai, China), bioluminescence images were acquired with the following conditions: open emission filter, exposure time = 60 s, binning = medium: 8, field of view = 12.9 ×12.9 cm, and f/stop = 1. Images were then analyzed using the Living Image 4.4 software (PerkinElmer). At the end of treatment, bioluminescence intensities were measured by photon flux of the region of interest (ROI) and compared between the vehicle and NTZ treatment groups. […] CC0113, […] Biotechnology, Beijing, China) was used as vehicle control, and NTZ was solved in CMC. NTZ was delivered into mice via intragastric administration (100 mg/kg BW) every day. Femurs were decalcified in ethylenediaminetetraacetic (EDTA) decalcification solution (Cat #: R20403-5L, OKA, Beijing, China) for 14-21 days. After decalcification, bone tissues were dehydrated in gradient ethanol from 70 to 95%, soaked in n-butanol for 6 h, and then embedded in paraffin. Tissue blocks were cut into 4 μm sections. After baking in an oven at 63°C for 1.5 h, tissue slides were deparaffinized with xylene, hydrated with gradient ethanol, and then stained with H&E (Cat #: BA4025, BaSO, Zhuhai, China). Slides were then mounted for analysis with neutral resins (Cat #: 25608-33-7, Sigma-Aldrich, MO, USA).
# [6] = tested on: PC-3-KQ-Luc cells; experiment: Bone metastasis assay, prevention mode; assay type: in vivo, Balb/c nude mice; settings: 100 mg/kg intragastric every day
# Source text: as §2
# [7] = tested on: MYBL2 promoter; experiment: ChIP assay of KLF5 binding to the MYBL2 promoter; assay type: cell-based, human; settings: PC-3-KQ cells treated for 48 h
# Experimental: ChIP assay was performed using the SimpleChIP Enzymatic Chromatin IP kit (Cat #: 9003s, Cell Signaling Technology) according to the manufacturer's instructions. Briefly, cells were treated with 1% formaldehyde for 10 min for cross-linking, quenched with glycine for 5 min at room temperature, collected, and digested with micrococcal nuclease for 20 min at 37°C. After stopping the reaction by adding EDTA, DNA was fragmented by sonication, and the extracts were incubated with KLF5 antibody (Cat #: 21017-1-AP, Proteintech) or IgG (Cat #: 2729P, Cell Signaling Technology). […]
# [8] = In vivo toxicity: body weight, adverse events, H&E of major organs; parameters: species or system Balb/c nude mice; settings: 100 mg/kg intragastric every day
compound,measurement,setting,value
CC(=O)Oc1ccccc1C(=O)Nc1ncc([N+](=O)[O-])s1 [Nitazoxanide],IC50,[1],49.2 ± 10.1 µM
same,IC50,[2],55.6 ± 1.4 µM
same,IC50,[3],11.4 ± 1 µM
same,IC50,[4],7 ± 0.7 µM
same,tumor cell area in bone sections (H&E),[5],not significantly affected
same,bioluminescence intensity,[5]; day 35,did not have a significant effect
same,tumor cell area in bone sections (H&E),[6],significantly decreased tumor cell area
same,"bone metastasis, bioluminescence signals",[6]; day 35,dramatically reduced bone metastasis
same,KLF5^K369Q-bound DNA of MYBL2 promoter (-1242 to -1251),[7],significantly decreased KLF5^K369Q-bound DNA
same,"severe adverse events, mortality, histopathological changes in heart, lung, liver, spleen, kidney",[8]; prevention mode,"no mice in any NTZ-treated group had severe adverse events, mortality, or noticeable histopathological changes"
same,body weight,"[8]; prevention mode, after 5 weeks",did not show a noticeable change
same,body weights,[8]; therapy mode,not affected
